Where a SMILES comes first, the peptide text is derived from it.
Experiments:
HLA B*1501 = HLA B*1501 (Homo sapiens, UniProt P01889, A329T/A93T/A95T/C349S/D201E/D98Y/E187L/E204Q/E69M/E70A/K202T/N87E/Q94N/R155S/R180W/S121R/S35A/S48A/V306I/V36M/Y140S/Y91S); assay: biochemical; assay type: binding
HLA B*1503 = HLA B*1503 (Homo sapiens, UniProt P01889, A329T/A93T/A95T/C349S/D201E/D98Y/E187L/E204Q/K202T/N87E/Q94N/R155S/R180L/S121R/S35A/V306I/V36M/Y140S/Y91S); assay: biochemical; assay type: binding

Row | SMILES | IC50 (HLA B*1501) [nM] | IC50 (HLA B*1503) [nM]
1 | CC(C)C[C@H](NC(=O)[C@H](Cc1ccccc1)NC(=O)[C@@H](NC(=O)[C@H](CCCCN)NC(=O)[C@H](CO)NC(=O)[C@@H](N)CO)C(C)C)C(=O)N[C@@H](CCCCN)C(=O)N[C@@H](C)C(=O)N[C@@H](Cc1ccccc1)C(=O)O [3102.0662] (H-SSKVFLKAF-OH) | 1.7 | 0.37
2 | CC[C@H](C)[C@H](NC(=O)[C@H](CO)NC(=O)[C@@H](N)Cc1c[nH]c2ccccc12)C(=O)N[C@@H](Cc1ccc(O)cc1)C(=O)N[C@@H](CC(C)C)C(=O)N[C@@H](CO)C(=O)N[C@@H](CC(C)C)C(=O)N[C@@H](Cc1c[nH]cn1)C(=O)N[C@@H](Cc1ccc(O)cc1)C(=O)O [3102.0867] (H-WSIYLSLHY-OH) | 48 | 8.9
3 | CC[C@H](C)[C@H](NC(=O)[C@H](CO)NC(=O)[C@@H](N)CC(C)C)C(=O)N[C@@H](CC(N)=O)C(=O)N[C@@H](CO)C(=O)N[C@@H](CO)C(=O)N[C@@H](Cc1ccccc1)C(=O)N[C@@H](Cc1ccc(O)cc1)C(=O)N[C@@H](Cc1ccccc1)C(=O)O [3102.1034] (H-LSINSSFYF-OH) | 1 | 4.8
4 | CC[C@H](C)[C@H](NC(=O)[C@H](CC(N)=O)NC(=O)[C@H](CC(N)=O)NC(=O)[C@@H](NC(=O)[C@@H](N)CO)[C@@H](C)CC)C(=O)N[C@@H](CC(=O)O)C(=O)N1CCC[C@H]1C(=O)N[C@@H](Cc1c[nH]cn1)C(=O)N[C@@H](Cc1ccccc1)C(=O)O [3102.1039] (H-SINNIDPHF-OH) | 12 | 
5 | CC[C@H](C)[C@H](NC(=O)[C@H](Cc1ccc(O)cc1)NC(=O)[C@@H](NC(=O)[C@H](CC(N)=O)NC(=O)[C@H](CCC(=O)O)NC(=O)[C@@H](N)CCSC)C(C)C)C(=O)N[C@@H](CO)C(=O)N[C@@H](CO)C(=O)N[C@@H](Cc1ccc(O)cc1)C(=O)O [3102.1042] (H-MENVYISSY-OH) | 2 | 
6 | CC[C@H](C)[C@H](NC(=O)[C@H](CC(N)=O)NC(=O)[C@H](C)NC(=O)[C@@H](NC(=O)[C@@H](N)CC(C)C)[C@@H](C)CC)C(=O)N[C@@H](Cc1c[nH]cn1)C(=O)N[C@@H](CC(N)=O)C(=O)N[C@@H](Cc1c[nH]cn1)C(=O)N[C@@H](CCSC)C(=O)O [3102.1046] (H-LIANIHNHM-OH) | 0.67 | 
7 | CC(C)C[C@H](NC(=O)[C@@H](NC(=O)[C@H](CO)NC(=O)[C@@H](NC(=O)[C@H](CC(N)=O)NC(=O)[C@H](CC(C)C)NC(=O)[C@@H](N)CO)[C@@H](C)O)[C@@H](C)O)C(=O)NCC(=O)N[C@@H](Cc1ccccc1)C(=O)O [3102.1051] (H-SLNTSTLGF-OH) | 1.7 | 13
8 | CSCC[C@H](NC(=O)[C@H](CCC(N)=O)NC(=O)[C@H](CCC(N)=O)NC(=O)[C@@H](NC(=O)[C@H](CCC(=O)O)NC(=O)[C@@H]1CCCN1C(=O)[C@H](CO)NC(=O)[C@H](CO)NC(=O)[C@@H](N)CCCCN)[C@@H](C)O)C(=O)O [3102.1065] (H-KSSPETQQM-OH) | 30 | 
9 | CC[C@H](C)[C@H](NC(=O)[C@H](Cc1c[nH]cn1)NC(=O)[C@H](CO)NC(=O)[C@@H](NC(=O)[C@@H](NC(=O)[C@H](Cc1ccc(O)cc1)NC(=O)[C@H](C)NC(=O)[C@H](CCSC)NC(=O)[C@@H](N)Cc1ccccc1)[C@@H](C)O)[C@@H](C)O)C(=O)O [3102.1071] (H-FMAYTTSHI-OH) | 133 | 7.6
10 | CC[C@H](C)[C@H](N)C(=O)N[C@@H](CO)C(=O)N[C@H](C(=O)N[C@@H](CC(C)C)C(=O)N[C@H](C(=O)NCC(=O)N[C@@H](CO)C(=O)N[C@@H](CO)C(=O)N[C@H](C(=O)O)[C@@H](C)CC)[C@@H](C)O)C(C)C [3102.1072] (H-ISVLTGSSI-OH) | 34 | 25
11 | CC(C)C[C@H](NC(=O)[C@@H](N)CCCNC(=N)N)C(=O)N[C@@H](CC(N)=O)C(=O)N1CCC[C@H]1C(=O)N[C@@H](CCC(=O)O)C(=O)N[C@H](C(=O)N[C@@H](CO)C(=O)N[C@@H](Cc1ccc(O)cc1)C(=O)N[C@@H](Cc1ccccc1)C(=O)O)C(C)C [3102.1097] (H-RLNPEVSYF-OH) | 0.3 | 0.32
12 | CC[C@H](C)[C@H](NC(=O)[C@H](CCC(N)=O)NC(=O)[C@@H](N)CO)C(=O)N[C@H](C(=O)N[C@H](C(=O)N[C@@H](CC(C)C)C(=O)N[C@H](C(=O)N[C@@H](C)C(=O)N[C@@H](Cc1ccccc1)C(=O)O)[C@@H](C)O)[C@@H](C)O)[C@@H](C)CC [3102.1111] (H-SQIITLTAF-OH) | 1 | 0.79
13 | CC(C)[C@H](NC(=O)[C@H](CCC(N)=O)NC(=O)[C@@H](N)CO)C(=O)N[C@@H](CCCCN)C(=O)N[C@@H](CS)C(=O)N[C@@H](CS)C(=O)N[C@@H](Cc1c[nH]cn1)C(=O)N[C@@H](Cc1ccc(O)cc1)C(=O)N[C@@H](Cc1ccccc1)C(=O)O [3102.1126] (H-SQVKCCHYF-OH) | 0.92 | 0.92
14 | CSCC[C@H](NC(=O)[C@@H](N)C(C)C)C(=O)N[C@H](C(=O)N[C@H](C(=O)N[C@@H](CO)C(=O)N[C@@H](CCCCN)C(=O)N1CCC[C@H]1C(=O)N[C@@H](CC(C)C)C(=O)N[C@@H](Cc1ccccc1)C(=O)O)[C@@H](C)O)C(C)C [3102.1148] (H-VMVTSKPLF-OH) | 16 | 8.8
15 | CSCC[C@H](NC(=O)[C@H](CO)NC(=O)[C@H](CCSC)NC(=O)[C@@H](N)CCSC)C(=O)N[C@@H](Cc1ccc(O)cc1)C(=O)NCC(=O)N[C@@H](CCCCN)C(=O)N[C@@H](C)C(=O)N[C@@H](Cc1ccccc1)C(=O)O [3102.1173] (H-MMSMYGKAF-OH) | 3.2 | 2.6
16 | CC(C)C[C@H](NC(=O)[C@H](CC(C)C)NC(=O)[C@@H](NC(=O)[C@H](CO)NC(=O)[C@H](Cc1ccc(O)cc1)NC(=O)[C@H](CC(C)C)NC(=O)[C@@H](N)CCC(N)=O)[C@@H](C)O)C(=O)N[C@@H](CO)C(=O)N[C@@H](Cc1ccccc1)C(=O)O [3102.1175] (H-QLYSTLLSF-OH) | 3 | 0.57
17 | CC[C@H](C)[C@H](NC(=O)[C@H](CO)NC(=O)[C@H](CC(C)C)NC(=O)CNC(=O)[C@H](CCC(=O)O)NC(=O)[C@H](CO)NC(=O)[C@H](Cc1ccc(O)cc1)NC(=O)[C@H](CC(C)C)NC(=O)[C@@H](N)CCCNC(=N)N)C(=O)O [3102.1232] (H-RLYSEGLSI-OH) | 4.5 | 
18 | CC(C)C[C@H](NC(=O)[C@H](CCC(=O)O)NC(=O)[C@@H]1CCCN1C(=O)[C@@H](NC(=O)[C@H](Cc1ccc(O)cc1)NC(=O)[C@@H](NC(=O)[C@@H](N)Cc1ccccc1)C(C)C)C(C)C)C(=O)N[C@@H](CO)C(=O)N[C@@H](Cc1ccccc1)C(=O)O [3102.1280] (H-FVYVPELSF-OH) | 0.96 | 
19 | CSCC[C@H](N)C(=O)N[C@@H](CO)C(=O)N[C@@H](CO)C(=O)N[C@@H](CO)C(=O)N[C@@H](CCC(N)=O)C(=O)N[C@@H](CC(=O)O)C(=O)N[C@@H](CC(C)C)C(=O)N[C@@H](CO)C(=O)N[C@@H](Cc1ccccc1)C(=O)O [3102.1286] (H-MSSSQDLSF-OH) | 16 | 
20 | CC[C@H](C)[C@H](NC(=O)[C@@H](N)Cc1ccccc1)C(=O)N[C@@H](CC(N)=O)C(=O)N[C@@H](CCSC)C(=O)N[C@H](C(=O)NCC(=O)N[C@@H](CC(N)=O)C(=O)N[C@@H](Cc1c[nH]cn1)C(=O)N[C@@H](Cc1ccccc1)C(=O)O)[C@@H](C)O [3102.1288] (H-FINMTGNHF-OH) | 16 | 
21 | CC[C@H](C)[C@H](NC(=O)[C@H](C)NC(=O)[C@H](CCSC)NC(=O)[C@@H](NC(=O)[C@@H](NC(=O)[C@@H](N)C(C)C)[C@@H](C)CC)[C@@H](C)CC)C(=O)N[C@@H](CC(N)=O)C(=O)N[C@H](C(=O)N[C@@H](Cc1ccccc1)C(=O)O)C(C)C [3102.1303] (H-VIIMAINVF-OH) | 26 | 
